Results as given in PMC2195641 (The Journal of Experimental Medicine, 1999).
Where a SMILES comes first, the peptide text is derived from it.

Target: T1, purified I-E^k molecules (Mus musculus, UniProt P04224+P04231)
T1 sequence (P04224 26-255): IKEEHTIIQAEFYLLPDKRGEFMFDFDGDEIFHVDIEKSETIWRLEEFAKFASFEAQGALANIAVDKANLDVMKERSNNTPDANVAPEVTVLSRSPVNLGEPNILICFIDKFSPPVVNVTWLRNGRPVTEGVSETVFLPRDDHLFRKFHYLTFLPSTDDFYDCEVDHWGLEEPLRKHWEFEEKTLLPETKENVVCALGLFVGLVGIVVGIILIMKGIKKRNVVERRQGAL
T1 sequence (P04231 1-232): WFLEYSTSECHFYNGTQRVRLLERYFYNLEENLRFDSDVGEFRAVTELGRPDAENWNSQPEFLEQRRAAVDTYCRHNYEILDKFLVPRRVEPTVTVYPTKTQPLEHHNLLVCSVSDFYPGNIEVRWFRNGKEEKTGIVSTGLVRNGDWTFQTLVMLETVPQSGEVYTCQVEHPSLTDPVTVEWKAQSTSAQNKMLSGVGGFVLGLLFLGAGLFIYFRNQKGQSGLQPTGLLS
Assay: I-E^k binding assay

CC[C@H](C)[C@H](NC(=O)[C@H](C)NC(=O)[C@H](C)NC(=O)[C@H](C)NC(=O)[C@H](C)NC(=O)[C@H](C)NC(=O)[C@H](C)NC(=O)[C@H](C)N)C(=O)N[C@@H](C)C(=O)N[C@@H](Cc1ccc(O)cc1)C(=O)N[C@@H](C)C(=O)N[C@@H](CCCCN)C(=O)N[C@@H](CCC(N)=O)C(=O)N[C@@H](C)C(=O)N[C@H](C(=O)N[C@@H](CCCCN)C(=O)O)[C@@H](C)O [pMCC-A] (H-AAAAAAAIAYAKQATK-OH)
IC50: 36 nM
